{"source": "patent US20160038411A1", "about": "“PULSATILE GASTRIC RETENTIVE DOSAGE FORMS” (Depomed, Inc., priority 2007, published 2016)", "key": {"nocturnal heartburn": {"system": "nocturnal heartburn", "conditions": "cited from earlier work"}, "[1]": {"test": "Two-period crossover study in GERD patients: plasma omeprazole PK", "type": "in vivo, human", "conditions": "for AUC: human, plasma, oral, read-out: median AUC (25-75%)", "protocol": "(§1) Sixteen patients with a history of GERD, all of whom experienced recurrent nighttime reflux for at least three months while taking proton pump inhibitors, were enrolled. […] Ambulatory 24-hour gastric pH was recorded and blood samples taken for PK analysis on days 6-7. Following a seven day washout the patients were crossed over to the alternate treatment. NAB was defined as an intra-gastric pH<4 for more than 1 hour between 22:00 hour and 06:00 hour (10:00 PM and 6:00 AM)."}, "[2]": {"test": "Four-way crossover pharmacokinetic study of omeprazole (limited colonic absorption)", "type": "in vivo", "conditions": "human, plasma, 20 mg; for AUC: mean±SD", "excerpt": "Nine healthy subjects were entered into the study with an intention to complete treatment of at least six subjects. […] A period of at least four days for washout was allowed between dosing."}, "[3]": {"conditions": "pH 11 phosphate buffer; cited from earlier work"}, "basal acid output": {"system": "basal acid output", "conditions": "20 mg dose, healthy volunteers and patients, cited from earlier work"}, "pH of the stomach": {"system": "pH of the stomach", "conditions": "cited from earlier work"}, "[4]": {"system": "NAB (intra-gastric pH<4 for more than 1 hour between 22:00 and 06:00)", "test": "Two-period crossover study in GERD patients: ambulatory 24-hour gastric pH, NAB", "type": "in vivo, human", "protocol": "as §1, with “enrolled. The study was an open label crossover study in which 14 of the 16 patients participated in each of two treatment arms separated by a washout period.” for “enrolled.”"}}, "note": "Like-named read-outs stand apart in the source and are kept apart here.", "data": [{"smiles": "COc1ccc2nc([S@@+]([O-])Cc3ncc(C)c(OC)c3C)[nH]c2c1", "note": "[esomeprazole]", "values": [{"measurement": "GERD patients with relief of nocturnal heartburn", "setting": "nocturnal heartburn", "value": 50, "unit": "%"}]}, {"smiles": "COc1ccc2[nH]c([S+]([O-])Cc3ncc(C)c(OC)c3C)nc2c1", "note": "(stereo not drawn) [omeprazole, 5-methoxy-2-[[(4-methoxy-3,5-dimethyl-2-pyridinyl)methyl]sulfinyl]-1H-benzimidazole]", "values": [{"measurement": "patients who did not start absorbing omeprazole until 4-5 hours after the initial dose", "setting": "[1]; 20 mg at dinner + 20 mg 4 hours later, of the 14 patients (FIG. 7B)", "value": 36, "unit": "%"}, {"measurement": "blood levels of omeprazole between 2:00 and 3:00 AM", "setting": "[1]; 40 mg single dose arm, the three patients who experienced NAB", "value": "undetectable levels"}, {"measurement": "time until start of omeprazole absorption after the initial 20 mg dose", "setting": "[1]; five of the 14 patients of the two dose arm (FIG. 7B)", "value": "4 to 5", "unit": "h"}, {"measurement": "AUC", "setting": "[1]; 20 mg at dinner + 20 mg four hours later for six days, all patients, n = 14", "value": 1860, "unit": "ng·h/mL"}, {"measurement": "AUC", "setting": "[1]; 20 mg at dinner + 20 mg four hours later, patients with NAB (n = 5)", "value": 1670, "unit": "ng·h/mL"}, {"measurement": "AUC", "setting": "[1]; 20 mg at dinner + 20 mg four hours later, patients without NAB (n = 9)", "value": 1910, "unit": "ng·h/mL"}, {"measurement": "AUC", "setting": "[2]; iv, (iv) 20 mg omeprazole delivered to the ascending colon via ENTERION capsule", "value": "242 ± 323", "unit": "ng·h/mL"}, {"measurement": "Tmax", "setting": "[2]; iv, (iv) Colonic", "value": 1.8, "unit": "h"}, {"measurement": "bioavailability", "setting": "[2]; iv, (iv) Colonic, compared to fasted state, read-out: Relative bioavailability", "value": "22 ± 12", "unit": "%"}, {"measurement": "bioavailability", "setting": "[2]; oral, 20 mg fed, one of the subjects removed from the analysis, read-out: relative bioavailability in the fed state compared to fasting", "value": "96 ± 7", "unit": "%"}, {"measurement": "Tmax", "setting": "[2]; oral, (i) SCR", "value": 4.9, "unit": "h"}, {"measurement": "bioavailability", "setting": "[2]; oral, (i) SCR, fed state, compared to fasted state, read-out: Relative bioavailability", "value": "61 ± 15", "unit": "%"}, {"measurement": "AUC", "setting": "[2]; oral, (i) SCR: 20 mg omeprazole divided into 17 doses at 30 minute intervals (8 hr), fed state, n = 7", "value": "568 ± 727", "unit": "ng·h/mL"}, {"measurement": "AUC", "setting": "[2]; oral, (ii) 20 mg omeprazole in the fed state, n = 7", "value": "849 ± 999", "unit": "ng·h/mL"}, {"measurement": "Tmax", "setting": "[2]; oral, (ii) Fed", "value": 3.7, "unit": "h"}, {"measurement": "bioavailability", "setting": "[2]; oral, (ii) Fed, compared to fasted state, read-out: Relative bioavailability", "value": "90 ± 16", "unit": "%"}, {"measurement": "AUC", "setting": "[2]; oral, (iii) 20 mg omeprazole in the fasted state, n = 7", "value": "969 ± 1090", "unit": "ng·h/mL"}, {"measurement": "bioavailability", "setting": "[2]; oral, (iii) Fasted (reference arm), read-out: Relative bioavailability", "value": 100, "unit": "%"}, {"measurement": "bioavailability", "setting": "[2]; other: ENTERION capsule activated in the terminal ileum, one subject, ENTERION capsule activated in the terminal ileum, read-out: relative bioavailability compared to fasted state", "value": 58, "unit": "%"}, {"measurement": "stability at pH 11", "setting": "[3]", "value": "stable at pH 11"}, {"measurement": "decrease in basal acid output", "setting": "basal acid output; 2-6 hours after dosing", "value": 78, "unit": "%"}, {"measurement": "decrease in basal acid output", "setting": "basal acid output; 24 hours after dosing", "value": "50%-80%"}, {"measurement": "nighttime pH control of the stomach, time with pH>4", "setting": "pH of the stomach; 40 mg before breakfast", "value": "24 % of the time"}, {"measurement": "nighttime pH control of the stomach, time with pH>4", "setting": "pH of the stomach; 40 mg before dinner", "value": "69 % of the time"}, {"measurement": "nighttime pH control of the stomach, time with pH>4", "setting": "pH of the stomach; twice-daily (BID) dosing, 20 mg before breakfast and dinner", "value": "80 % of the time"}, {"measurement": "patients who experienced inhibition of NAB", "setting": "[4]; 20 mg at dinner + 20 mg 4 hours later, the 9 patients with two-dose absorption profile (FIG. 7A)", "value": 100, "unit": "%"}, {"measurement": "occurrence of NAB", "setting": "[4]; 40 mg single dose 30 minutes before dinner for six days, 14 patients", "value": "Three of the patients experienced NAB"}, {"measurement": "occurrence of NAB", "setting": "[4]; two dose arm, nine patients who achieved blood levels from both doses", "value": "none experienced NAB"}, {"measurement": "occurrence of NAB", "setting": "[4]; two dose arm, the five patients with delayed absorption", "value": "All five of those patients experienced NAB"}]}]}
